Converted amounts (≈) assume the structure as drawn. Read-outs that look alike come from different tables or passages of the source.
Legend:
Format in all cases: cell-based
[1] = tested on: Bacillus subtilis ATCC 6633; test: Broth microdilution MIC, B. subtilis ATCC 6633; details: read-out: MIC B. subtilis ATCC 6633
In short: (§1)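 Two-fold dilutions from 64 to 0.0625 μg/ml final, 1% DMSO, were inoculated at ~5.0×10^5 cfu/ml in the strain's test medium and kept 20 h at 37 °C in ambient atmosphere. Colonies were grown on MHA, with S. pneumoniae on blood agar under 5% CO2.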

[2] = tested on: Staphylococcus aureus NRS384 (MRSA); test: Broth microdilution MIC, S. aureus NRS384 (MRSA); parameters: MIC NRS 384 (MRSA): unit not given here; details: for MIC: Staphylococcus aureus, read-out: MIC NRS 384 (MRSA)
In short: as §1

[3] = tested on: Enterococcus faecalis ATCC 29212; test: Broth microdilution MIC, E. faecalis ATCC 29212; details: read-out: MIC E. faecalis ATCC 29212
In short: as §1

[4] = tested on: Streptococcus pneumoniae ATCC 49619; test: Broth microdilution MIC, S. pneumoniae ATCC 49619; details: read-out: MIC S. pneumoniae ATCC 49619
In short: as §1

[5] = tested on: Escherichia coli ATCC 25922; test: Broth microdilution MIC, E. coli ATCC 25922 (MHIIB w & w/o 4 mM EDTA); details: for MIC: Escherichia coli, read-out: MIC E. coli ATCC 25922
In short: as §1

[6] = tested on: Enterococcus faecium ATCC 700221 (VRE); test: Broth microdilution MIC, E. faecium ATCC 700221 (VRE); parameters: MIC E. faecium ATCC 700221 (VRE): unit: ug/mL; details: for MIC: Enterococcus faecium, read-out: MIC E. faecium ATCC 700221 (VRE)
In short: as §1

[7] = tested on: Staphylococcus aureus ATCC 29213 (MSSA); test: Broth microdilution MIC, S. aureus ATCC 29213 (MSSA); details: read-out: MIC S. aureus ATCC 29213 (MSSA)
In short: as §1

[8] = ATCC6633, broth microdilution, 37° C., 20 hours
[9] = broth microdilution, 37° C., 20 hours
[10] = ATCC29212, broth microdilution, 37° C., 20 hours
[11] = ATCC49619, broth microdilution, 37° C., 20 hours
[12] = ATCC25922, without EDTA, broth microdilution, 37° C., 20 hours
[13] = with 4 mM EDTA, broth microdilution, 37° C., 20 hours
[14] = S. aureus NRS 384, broth microdilution, 37° C., 20 hours

MIC [1, 8] [µg/mL]	MIC NRS 384 (MRSA) [2, 9]	MIC [3, 10] [µg/mL]	MIC [4, 11] [µg/mL]	MIC [5, 12] [µg/mL]	MIC E. coli ATCC 25922 + 4 mM EDTA [5, 13] [µg/mL]	MIC E. faecium ATCC 700221 (VRE) [6, 9]	MIC [7, 9] [µg/mL]	MIC [2, 9] [µg/mL]	MIC [6, 9] [µg/mL]	MIC [2, 14] [µg/mL]	MIC E. coli ATCC 25922 + 4 mM EDTA ([5]; ATCC25922, 20 h) [µg/mL]	MIC NRS 384 (MRSA) [2, 14]	SMILES	MIC ([1]; ATCC6633, 20 h) [µg/mL]	MIC ([2]; 20 h) [µg/mL]	MIC ([3]; ATCC29212, 20 h) [µg/mL]	MIC ([4]; ATCC49619, 20 h) [µg/mL]	MIC ([5]; ATCC25922, 20 h) [µg/mL]	MIC ([6]; 20 h) [µg/mL]	MIC ([7]; 20 h) [µg/mL]
1 (≈ 2.54 µM)	4/4	4 (≈ 10.2 µM)	4 (≈ 10.2 µM)	> 64	>64	2/2	4 (≈ 10.2 µM)						N#CCOCCn1ncc2nc(NCc3ccc(Cl)c(Cl)c3)[nH]c(=O)c21 [Compound 285, 2-(2-(5-((3,4-dichlorobenzyl)amino)-7-oxo-6,7-dihydro-1H-pyrazolo[4,3-d]pyrimidin-1-yl)ethoxy)acetonitrile]							
4 (≈ 9.99 µM)		4 (≈ 9.99 µM)	4 (≈ 9.99 µM)	> 64	>64		8 (≈ 20 µM)	8 (≈ 20 µM)	2 (≈ 5 µM)				[2H]C([2H])(O)COCCn1ncc2nc(NCc3ccc(Cl)c(Cl)c3)[nH]c(=O)c21 [Compound 286, 5-[(3,4-dichlorophenyl)methylamino]-1-[2-(2,2-dideuterio-2-hydroxyl-ethoxy)ethyl]-6H-pyrazolo[4,3-d]pyrimidin-7-one]							
2 (≈ 4.69 µM)	4/4	8 (≈ 18.8 µM)	16 (≈ 37.5 µM)	> 64	>64	4/4	4 (≈ 9.38 µM)						COC(=O)COCCn1ncc2nc(NCc3ccc(Cl)c(Cl)c3)[nH]c(=O)c21 [Compound 287, methyl 2-(2-(5-((3,4-dichlorobenzyl)amino)-7-oxo-6,7-dihydro-1H-pyrazolo[4,3-d]pyrimidin-1-yl)ethoxy)acetate]							
8 (≈ 20.9 µM)		16 (≈ 41.9 µM)	16 (≈ 41.9 µM)	> 64	>64		32 (≈ 83.7 µM)	16 (≈ 41.9 µM)	8 (≈ 20.9 µM)				O=C(CO)Cn1ncc2nc(NCc3ccc(Cl)c(Cl)c3)[nH]c(=O)c21 [Compound 290, 5-((3,4-dichlorobenzyl)amino)-1-(3-hydroxy-2-oxopropyl)-1H-pyrazolo[4,3-d]pyrimidin-7(6H)-one]							
16		64	64	> 64	>64		16	16	64				Cl.N=C(N)NCCn1ncc2nc(NCc3ccc(Cl)c(Cl)c3)[nH]c(=O)c21 [Compound 292, 1-(2-(5-((3,4-dichlorobenzyl)amino)-7-oxo-6,7-dihydro-1H-pyrazolo[4,3-d]pyrimidin-1-yl)ethyl)guanidine hydrochloride]							
16		64	32	> 64	64		32	32	64				CNC(=N)NCCn1ncc2nc(NCc3ccc(Cl)c(Cl)c3)[nH]c(=O)c21.Cl [Compound 294, 1-(2-(5-((3,4-Dichlorobenzyl)amino)-7-oxo-6,7-dihydro-1H-pyrazolo[4,3-d]pyrimidin-1-yl)ethyl)-3-methylguanidine hydrochloride]							
32		> 64	8	> 64	>64		> 64		64	> 64			O=c1[nH]c(NCc2ccc(Cl)c(Cl)c2)nc2cnn(CCOCCOP(=O)(O)O)c12 [Compound 296, 2-(2-(5-((3,4-dichlorobenzyl)amino)-7-oxo-6,7-dihydro-1H-pyrazolo[4,3-d]pyrimidin-1-yl)ethoxy)ethyl dihydrogen phosphate]							

The next lines start with the compound.

SMILES	MIC [1, 8] [µg/mL]	MIC NRS 384 (MRSA) [2, 9]	MIC [3, 10] [µg/mL]	MIC [4, 11] [µg/mL]	MIC [5, 12] [µg/mL]	MIC E. coli ATCC 25922 + 4 mM EDTA [5, 13] [µg/mL]	MIC E. faecium ATCC 700221 (VRE) [6, 9]	MIC [7, 9] [µg/mL]	MIC [2, 9] [µg/mL]	MIC [6, 9] [µg/mL]	MIC [2, 14] [µg/mL]	MIC E. coli ATCC 25922 + 4 mM EDTA ([5]; ATCC25922, 20 h) [µg/mL]	MIC NRS 384 (MRSA) [2, 14]	MIC ([1]; ATCC6633, 20 h) [µg/mL]	MIC ([2]; 20 h) [µg/mL]	MIC ([3]; ATCC29212, 20 h) [µg/mL]	MIC ([4]; ATCC49619, 20 h) [µg/mL]	MIC ([5]; ATCC25922, 20 h) [µg/mL]	MIC ([6]; 20 h) [µg/mL]	MIC ([7]; 20 h) [µg/mL]
O=c1[nH]c(NCc2ccc(Cl)c(Cl)c2)nc2cnn(CC(CO)N3CCOCC3)c12 (centres unmarked) [Compound 288, 5-[(3,4-dichlorophenyl)methylamino]-1-(3-hydroxy-2-morpholino-propyl)-6H-pyrazolo[4,3-d]pyrimidin-7-one]	8 (≈ 17.6 µM)		32 (≈ 70.6 µM)	16 (≈ 35.3 µM)	> 64	>64		32 (≈ 70.6 µM)	32 (≈ 70.6 µM)	16 (≈ 35.3 µM)										
O=c1[nH]c(NCc2ccc(Cl)c(Cl)c2)nc2cnn(CC(O)CN3CCOCC3)c12 (centres unmarked) [Compound 289, 5-[(3,4-dichlorophenyl)methylamino]-1-(2-hydroxy-3-morpholino-propyl)-6H-pyrazolo[4,3-d]pyrimidin-7-one]	8 (≈ 17.6 µM)		16 (≈ 35.3 µM)	8 (≈ 17.6 µM)	> 64	>64		32 (≈ 70.6 µM)	32 (≈ 70.6 µM)	8 (≈ 17.6 µM)										
[2H]C([2H])(Nc1nc2cnn(CCOCCO)c2c(=O)[nH]1)c1ccc(Cl)c(Cl)c1 [Compound 291, 5-[[dideuterio-(3,4-dichlorophenyl)methyl]amino]-1-[2-(2-hydroxyethoxy)ethyl]-6H-pyrazolo[4,3-d]pyrimidin-7-one]	4 (≈ 9.99 µM)		16 (≈ 40 µM)	8 (≈ 20 µM)	> 64	>64		16 (≈ 40 µM)	16 (≈ 40 µM)	4 (≈ 9.99 µM)										
Cl.N=C(N)NCCOCCn1ncc2nc(NCc3ccc(Cl)c(Cl)c3)[nH]c(=O)c21 [Compound 293, 1-(2-(2-(5-((3,4-Dichlorobenzyl)amino)-7-oxo-6,7-dihydro-1H-pyrazolo[4,3-d]pyrimidin-1-yl)ethoxy)ethyl)guanidine hydrochloride]	8		64	16	> 64	32		16	16	> 64										
Cl.O=c1[nH]c(NCc2ccc(Cl)c(Cl)c2)nc2cnn(CCNC3=NCCN3)c12 [Compound 295, 5-((3,4-Dichlorobenzyl)amino)-1-(2-((4,5-dihydro-1H-imidazol-2-yl)amino)ethyl)-1H-pyrazolo[4,3-d]pyrimidin-7(6H)-one hydrochloride]	32		64	32	> 64	64		> 64	64	64										
COP(=O)(OC)OCCOCCn1ncc2nc(NCc3ccc(Cl)c(Cl)c3)[nH]c(=O)c21 [Compound 297, 2-(2-(5-((3,4-dichlorobenzyl)amino)-7-oxo-6,7-dihydro-1H-pyrazolo[4,3-d]pyrimidin-1-yl)ethoxy)ethyl dimethyl phosphate]						>64								8	32	16	8	> 64	8	16
COP(=O)(O)OCCOCCn1ncc2nc(NCc3ccc(Cl)c(Cl)c3)[nH]c(=O)c21 [Compound 298, 2-(2-(5-((3,4-Dichlorobenzyl)amino)-7-oxo-6,7-dihydro-1H-pyrazolo[4,3-d]pyrimidin-1-yl)ethoxy)ethyl methyl hydrogen phosphate]						>64								> 64	> 64	> 64	> 64	> 64	> 64	> 64
N.N.O=c1[nH]c(NCc2ccc(Cl)c(Cl)c2)nc2cnn(CCOCCOCOP(=O)(O)O)c12 [Compound 299, ammonium (2-(2-(5-((3,4-dichlorobenzyl)amino)-7-oxo-6,7-dihydro-1H-pyrazolo[4,3-d]pyrimidin-1-yl)ethoxy)ethoxy)methyl phosphate]	64		> 64	16	> 64			> 64		16	> 64	>64								
CSCOCCOCCn1ncc2nc(NCc3ccc(Cl)c(Cl)c3)[nH]c(=O)c21 [Compound 300, 5-[(3,4-dichlorophenyl)methylamino]-1-[2-[2-(methylsulfanylmethoxy)ethoxy]ethyl]-6H-pyrazolo[4,3-d]pyrimidin-7-one]	1 (≈ 2.18 µM)		8 (≈ 17.5 µM)	4 (≈ 8.73 µM)	> 64	>64	2/4	4 (≈ 8.73 µM)					4/4							
